Measured values: US12528774B2, “Thiosemicarbazone compounds and uses thereof” (The Regents of the University of California, priority 2019, dated 2026)
Where “and” joins values, the source holds several entries; their conditions need not be identical. Equal values may be shown once. Read-outs that look alike come from different tables or passages of the source.

Assays:
MIAPACA2 cells = test: Proliferation assay (CellTiter-Glo, 72 h) in MIAPACA2 cells; type: cell-based, human; details: for IC90: Homo sapiens, MIA PaCa-2, 72 h, MIAPACA2, 72 h
Experimental: IC90 values against MIAPACA2 cells was first determined in normal cell culture conditions (DMEM media and 10% FBS). Compounds were separated into three series (4′ primary amines, 4′ secondary amines, 4′ tertiary amines) to reflect the relative degrees of 4′ amine methylation. […] (Refs 41, 42).
HCT compounds are known to be copper chelators. (Ref. 32). To test whether the compounds described herein were similarly potentiated, the IC90 (+Cu IC90) values were determined against MIAPACA2 cells in media supplemented with physiologically relevant levels of copper (DMEM media+10% FBS+20 μM CuCl2). MIAPACA2 cells were treated with the indicated HCT±20 μM Cu(II) for 72 hours, then cell viability was measured with CellTiter-Glo to determine IC90 values.
(§1) Proliferation assay: Cells were plated in 384-well plates (500 cells/well for adherent cell lines in 30 μl volume). Drugs were serially diluted to the desired concentrations and an equivalent volume of DMSO was added to vehicle control. Following 72 h incubation, ATP content was measured using CellTiter-Glo reagent according to manufacturer's instructions (Promega, CellTiter-Glo Luminescent Cell Viability Assay), and analyzed by SpectraMax luminometer (Molecular Devices). IC50 and IC90 values, concentrations required to inhibit proliferation by 50% and 90% respectively compared to DMSO treated cells, were calculated using Prism 6.0 h (Graphpad Software).
as §1, with “assay.” for “assay:”, “Software). The 430-member protein kinase inhibitor library used for the chemical genomics screen was purchased from Selleckchem, Catalog No. L1200.” for “Software).”

MIAPACA2 PDAC cells = test: Intracellular copper measurement by ICP-MS; type: cell-based, human; details: HCT13 25 nM, 24 h, with and without 20 μM Cu(II)
Text: FIG. 1A: IC50 values in a panel of human and mouse prostate cancer (PC)(cell lines CF-2, LNCaP, 22Rv1, RM-1, MyC CaP); small cell lung carcinoma (SCLC)(cell lines NCI-H1963, NCI-H146, NCI-H526); pancreatic ductal adenocarcinoma (PDAC)(CFPAC1, SW1990, HS766T, PANC0203, PANC0813, ASPC1, HPAFII, PATU8902, PANC0327, PANC1, YAPC, L36PL, XWR200, HUPT4, A13A, SUIT2, DAN-G, BxPC3, HPAC, PSN1, SU8686, KP4662, MIAPACA2, PATU8988T); and leukemia (cell lines KG-1, TF-1, Jurkat, MOLT-4, p185-R, MV4-11) models treated with HCT13+Cu(II) (20 μM) for 72 h measured by CellTiterGlo. […] (mean±SD, n=2, one-way ANOVA corrected for multiple comparisons by Bonferroni adjustment, * P<0.05; **P<0.01; ***P<0.001).
The MIAPACA2 cell line, a well-characterized PDAC model that was highly sensitive to HCT13 treatment, was used to further investigate the mechanism of action of our lead compound. MIAPACA2 proliferation was measured in response to HCT13 in the presence and absence of 20 μM CuCl2 (Cu(II)), as well as in response to 20 μM Cu(II) alone (FIG. 1B). […] To probe whether HCT13 was acting as an ionophore, intracellular copper levels were measured using inductively coupled plasma mass spectrometry (ICP-MS). […]
Intracellular Cu(II) measurement. […] The concentration of Cu(II) was measured using Inductive Coupled Plasma Mass Spectrometry (ICP-MS) using standard procedure.

[1] = tested on: PDAC (MIAPACA2, CFPAC-1) and PC (C4-2) cell lines; test: Cell death assays (Annexin V/PI, trypan blue) of HCT13 with ATR inhibition; type: cell-based; details: ATRi 250 nM VE-822, Cu(II) 20 μM, 72 h
Experimental: FIGS. 4A-4G show the chemical genomics screen identifying the replication stress response pathway as an actionable co-dependency of HCT13-treated cells. FIG. 4A: experimental design of a synthetic lethality screen using a library of protein kinase inhibitors against HCT13-treated cells in the presence of Cu(II) (20 μM). FIG. 4B: radar plot of screen results. FIG. 4C: z-score values for kinase inhibitors within the DNA damage response/replication stress response (DDR/RSR) pathway module. FIG. 4D: representative immunoblot of replication stress and cell death biomarkers in MIAPACA2 PDAC cells treated with HCT13 (10 nM)+Cu(II) (20 μM). […] (mean±SD, n=2, one-way ANOVA corrected for multiple comparisons by Bonferroni adjustment, * P<0.05; ** P<0.01; *** P<0.001; **** P<0.0001).
FIGS. 6A-6C provide the identification of resistance mechanisms to HCT13 using a synthetic lethality screen. […] (mean±SD, n=2, one-way ANOVA corrected for multiple comparisons by Bonferroni adjustment, * P<0.05; ** P<0.01; *** P<0.001; **** P<0.0001). […]
Viability/Apoptosis assay: Viable cells were measured by Trypan blue staining using vi-cell counter (Beckman Coulter, CA, USA). […]

CN(C)C(=S)N/N=C/c1nccc2cc(F)ccc12 (mixture of isomers) [HCT13, (E)-2-((6-Fluoroisoquinolin-1-yl)methylene)-N,N-dimethylhydrazine-1-carbothioamide and (Z)-2-((6-Fluoroisoquinolin-1-yl)methylene)-N,N-dimethylhydrazine-1-carbothioamide]
increase in potency under copper supplementation versus non-copper-supplemented IC90 (MIAPACA2 cells; 20 μM CuCl2): greater than 5 fold | antiproliferative potency with Cu(II) supplementation (MIAPACA2 cells; 72 h, Cu(II) 20 μM): highest | IC90 (MIAPACA2 cells; DMEM + 10% FBS + 20 μM CuCl2, read-out: +Cu(II) IC90): 21.6 nM | IC90 (MIAPACA2 cells; DMEM + 10% FBS, no copper supplementation, read-out: IC90): 110 nM | potency relative to non-methylated analog HCT3 (MIAPACA2 cells; IC90 without copper): ~50 fold | potency relative to non-fluorinated analog (MIAPACA2 cells; IC90 without copper, analog of same 4′ amine series (HCT1, HCT6 or HCT11)): ~250 fold and ~270 fold | intracellular copper levels (MIAPACA2 PDAC cells): increased | interaction with ATR inhibition (cell death) [1]: synergistic interaction
